Data set [1] concerns Leishmania infantum. Kind of data set: Antileishmanial activity against Leishmania infantum MON-1 promastigotes assessed as reduction in parasite viability measured after 48 hrs by MTT assay. In kind it is functional, organism-based. Conditions: MON-1, 48 h.
Data set [2] deals with HepG2. Kind of data set: Antiproliferative activity against human HepG2 cells assessed as reduction in cell growth measured for 72 hrs by MTT assay. It is filed as functional, cell-based. Conditions: HepG2, 72 h. On the technique in general: Tetrazolium assays rely on reduction of a dye to a coloured formazan, in cell work by metabolically active cells.
Data set [3] relates to HepG2. Kind of data set: Cytotoxicity against human HepG2 cells assessed as reduction in cell growth measured for 48 hrs by MTT assay. It is filed as functional.
In data set [4] the test system is Leishmania donovani. Put plainly: Antileishmanial activity against Leishmania donovani MHOM/SD/62/1S amastigotes assessed as reduction in cell growth. In kind it is functional, organism-based.
In data set [5] the test system is Leishmania braziliensis. Put plainly: Antileishmanial activity against Leishmania braziliensis promastigotes. It is filed as functional, organism-based.
The subject of data set [6] is Leishmania major. Put plainly: Antileishmanial activity against Leishmania major promastigotes. It is filed as functional, organism-based.
Data set [7] in a line: Cytotoxicity against African green monkey Vero cells assessed as reduction in cell growth. In kind it is toxicity, cell-based, Chlorocebus sabaeus.
The test system of data set [8] is Leishmania amazonensis. Put plainly: Antileishmanial activity against Leishmania amazonensis MHOM/BR/75/Josefa promastigotes assessed as reduction in parasite viability after 72 hrs by Neubauer chamber counting method. It is filed as functional, organism-based.
Data set [9] concerns HepG2. Kind of data set: Cytotoxicity against human HepG2 cells assessed as reduction in cell growth incubated for 48 hrs by MTT assay. In kind it is functional, cell-based. Conditions: HepG2, 48 h.
Data set [10] deals with HepG2. Put plainly: Antiproliferative activity against human HepG2 cells assessed as reduction in cell viability incubated for 72 hrs by MTT assay. It is filed as functional, cell-based. Conditions: HepG2, 72 h.
Data set [11] has as its system Leishmania infantum. Kind of data set: Antileishmanial activity against Leishmania infantum MCAN/ES/89/IPZ229/1/89 promastigotes assessed as reduction in parasite growth measured for 48 hrs by resazurin dye based analysis. Conditions: MCAN/ES/89/IPZ229/1/89, 48 h. In kind it is functional, organism-based. Background: Resazurin is reduced to fluorescent resorufin, in cell work by metabolically active cells.

For data set [12], the system named is Leishmania major. Put plainly: Antileishmanial activity against Leishmania major MHOM/IR/-173 promastigotes assessed as inhibition of parasite growth measured for 24 hrs by resazurin dye-based analysis relative to control. It is filed as functional. Further details: scale not given: the % may be the effect or the level left.
The test system of data set [13] is Leishmania infantum. Put plainly: Antiparasitic activity against Leishmania infantum amastigotes infected in human THP-1 cells assessed as reduction in parasitemia incubated for 72 hrs by high content imaging analysis. In kind it is functional, organism-based. Conditions: THP-1, 72 h.
Data set [14] relates to Leishmania infantum. Kind of data set: Antileishmanial activity against Leishmania infantum MCAN/ES/89/IPZ229/1/89 axenic amastigotes assessed as reduction in parasite growth treated for 24 hrs by PI staining based flow cytometry. Conditions: MCAN/ES/89/IPZ229/1/89, 24 h. It is filed as functional, organism-based. (A flow cytometer gives signals particle by particle.)
Data set [15] relates to Leishmania tropica. Put plainly: Antileishmanial activity against Leishmania tropica promastigotes incubated for 24 hrs measured by alamar blue staining based fluorescence analysis. In kind it is functional, organism-based.
A short description of data set [16]: Selectivity index, ratio of CC50 for human HepG2 cells to EC50 for GFP-expressing Leishmania infantum intracellular amastigotes infected in human THP-1 derived macrophage cells. In kind it is toxicity, cell-based. Conditions: read-out: Ratio CC50/EC50.
Data set [17] is described as follows: Selectivity index, ratio of CC50 for cytotoxicity against mouse J774.A1 cells to IC50 for antileishmanial activity against Leishmania amazonensis axenic amastigote assessed as inhibition of parasite growth. It is filed as toxicity, cell-based. Conditions: read-out: Ratio CC50/IC50.
Data set [18] deals with Leishmania donovani. Put plainly: Antileishmanial activity against Leishmania donovani axenic amastigotes assessed as reduction in parasite growth measured after 24 hrs by PI staining based analysis. It is filed as functional, organism-based.
Data set [19] deals with Leishmania donovani. Kind of data set: Antileishmanial activity against Leishmania donovani MHOM/ET/67/HU3 promastigotes assessed as inhibition of parasite growth incubated for 72 hrs by MTT assay. In kind it is functional, organism-based. Conditions: MHOM/ET/67/HU3, 72 h.
Data set [20] can be described thus: Cytotoxicity against African green monkey Vero cells assessed as reduction in cell viability measured after 96 hrs by MTS assay. It is filed as toxicity, cell-based, Chlorocebus sabaeus.
The test system of data set [21] is Leishmania donovani. Kind of data set: Antileishmanial activity against Leishmania donovani MHOM/IN/95/9515 promastigotes assessed as inhibition of parasite proliferation measured for 48 hrs by resazurin dye-based analysis relative to control. In kind it is functional. Further details: scale not given: the % may be the effect or the level left.
The subject of data set [22] is Leishmania braziliensis. Put plainly: Antileishmanial activity against Leishmania braziliensis MHOM/BR/75/M2904 promastigotes assessed as reduction in cell viability incubated for 48 hrs by resazurin staining based assay. In kind it is functional, organism-based. Conditions: MHOM/BR/75/M2904, 48 h.
The test system of data set [23] is Leishmania infantum. Put plainly: Antileishmanial activity against Leishmania infantum axenic amastigotes (MCAN/ES/89/IPZ229/1/89) assessed as inhibition of parasite proliferation measured after 24 hrs by resazurin dye based fluorescence analysis. It is filed as functional, organism-based. Conditions: MCAN/ES/89/IPZ229/1/89, 24 h.
Data set [24] has as its system Leishmania donovani. Kind of data set: Antileishmanial activity against Leishmania donovani promastigotes infected in golden hamster assessed as reduction in parasite load in spleen at 20 mg/kg administered twice per week for 4 weeks relative to control. It is filed as functional. Further details: scale not given: the % may be the effect or the level left.
The subject of data set [25] is Leishmania donovani. Kind of data set: Antileishmanial activity against Leishmania donovani promastigotes infected in golden hamster assessed as reduction in parasite load in liver at 20 mg/kg administered twice per week for 4 weeks relative to control. It is filed as functional. Further details: scale not given: the % may be the effect or the level left.
The subject of data set [26] is Leishmania donovani. Put plainly: Antileishmanial activity against Leishmania donovani Ag83 promastigotes infected in BALB/c mouse assessed as reduction in parasite infection at 5 to 20 mg/kg by propidium iodide staining analysis. In kind it is functional, organism-based.
Data set [27] concerns Trypanosoma brucei. Kind of data set: Antitrypanosomal activity against Trypanosoma brucei assessed as parasite growth inhibition. It is filed as functional, organism-based.
The subject of data set [28] is Leishmania major. Kind of data set: Antileishmanial activity against Leishmania major MHOM/IL/80/Friendlin assessed as reduction in parasite growth incubated for 48 hrs by MTT assay. In kind it is functional, organism-based.
The subject of data set [29] is NCI-H1299. Kind of data set: Antiproliferative activity against human NCI-H1299 cells assessed as reduction in cell viability incubated for 48 hrs by MTT assay. Conditions: NCI-H1299, 48 h. It is filed as functional, cell-based.
Data set [30] has as its system HT-29. Put plainly: Antiproliferative activity against human HT-29 cells assessed as reduction in cell viability incubated for 48 hrs by MTT assay. It is filed as functional, cell-based. Conditions: HT-29, 48 h.
A short description of data set [31]: Antileishmanial activity against Leishmania infantum BCN-150 promastigotes assessed as reduction in parasite growth incubated for 48 hrs by MTT assay. It is filed as functional.

Each structure is given as a SMILES string.

The term EC50 denotes the concentration that produces a half-maximal response. As a reminder, the CC50 is the concentration that lowers cell viability or growth by half. What is called IC50 is the concentration at which inhibition is half-maximal.

Turning to `CCOC(=O)c1cc2c([nH]c3ccccc32)c(-c2cn(-c3ccccc3)nn2)n1`, the results for the concentration for a half-maximal effect (EC50) in data set [1] and in data set [2] were 4.8 µM and 13.6 µM, respectively. The CC50 in data set [3] is greater than 200 µM.
Turning to `Cc1ccc2c(NCCCCCNC(=O)c3cccc(/C=C/C(=O)c4ccc(C)o4)c3)ccnc2c1`, in data set [4], the half-inhibitory concentration (IC50) was found to be 0.46 µM.
On to `Cc1cc(OCCCCCNC(C)(C)C)cc2oc3cc(OCCCCCNC(C)(C)C)cc(O)c3c(=O)c12`, for which the half-inhibitory concentration (IC50) came out at 2.4 µM in data set [5], 5.4 µM in data set [6] and 15.5 µM in [7].
Turning to `CN(C)c1ccc(-c2nc(C3=NCCO3)cc3c2[nH]c2ccccc23)cc1`, the IC50 in [8] is 6.1 µM.
For `Nc1nc2ccccc2c2ccccc12`, the results for the concentration for a half-maximal effect (EC50) in data set [9], in data set [10] and in data set [11] were 3.07 µM, less than 30 µM and 12.6 µM, respectively.
`O=C(Cn1cnc2ccccc2c1=O)N1CCC2(CC1)OCCO2`: the Activity in data set [12] came out at 35%.
With `Cn1c(=O)c2c(c3ccccc31)OC(C)(C)[C@H]1CC[C@@](C)(O)[C@H](Cl)[C@H]21`, the 50% inhibitory concentration (IC50) in data set [13] was greater than 6.25 µM.
For `Nc1ccnn1C(=O)C1CCC2(CC1)OOC1(O2)C2CC3CC(C2)CC1C3` (configuration not stated), the IC50 in data set [14] and in data set [15] was 219 µM each time. For the same molecule, the selectivity ratio in [16] is less than 5.
As for `CC(=O)Oc1ccc(CN2CNC(=O)C=N2)cc1C1OC(c2cccc(Cl)c2)=NN1C(C)=O` (configuration not stated), the selectivity ratio in data set [17] stood at 2.4. Also, the half-inhibitory concentration (IC50) turned out to be 6.05 µM in [18] and 8.98 µM in data set [19].
On to `O=C(Cn1cnc2cc(Cl)ccc2c1=O)n1cnc2cc(Cl)ccc2c1=O`, for which the IC50 at 96 h in data set [20] was determined as 0.03 µM. Also, in [21], the Activity is recorded as 29%.
Consider `CCCCCCCCCn1cc(COC(C)=O)[n+](C)n1`, for which the results for the IC50 in data set [22] and in data set [23] were 4.55 µM and 5.36 µM, respectively. Moreover, the Activity was 59.8% in data set [24] and 26.88% in data set [25].
As for `O=C(Nc1cncs1)C(c1ccccc1)c1ccc(Cl)cc1` (configuration not stated), in data set [26], the IC50 worked out at 3.2 µM.
For `CCCc1cn(CCN2CCN(C(=O)c3c(C)nc4ccc(C)cn34)CC2)nn1`, the IC50 in data set [27] is 0.72 µM.
Regarding `N#C[Se]c1ccc2c(c1)OCO2`, the IC50 stood at 4.6 µM in [28], 82.5 µM in data set [29], 61.2 µM in data set [30] and 3.3 µM in data set [31].
Turning to `CN(C)c1ccc(-c2nc(C(=O)NCCCl)cc3c2[nH]c2ccccc23)cc1`, the IC50 in [8] came out at 16.8 µM.

The record behind these values is ChEMBL document CHEMBL5528001, “Synthetic product-based approach toward potential antileishmanial drug development” (Eur J Med Chem, 2024).
